# Values quoted from earlier work as cited in patent publication US20090202444A1 (priority 2009, published 2009).
# System: bacteria
smiles,measurement,value
[Ag+] [silver ion],silver ion concentration for inhibition of bacterial growth,below 5 ppm
